# In the kinase profiling compilation of Christmann-Franck et al. (2016):
# Experiments:
# Assay in all cases: radiometric filter-binding kinase assay, Kinase HotSpot
# Conditions in all cases: compound 0.5 µM; ATP 10 µM
# ACVRL1 (human) = ACVRL1 (human) (UniProt P37023)
# AKT2 (human) = AKT2 (human) (UniProt P31751)
# ALK (human) = ALK (human) (UniProt Q9UM73)
# CAMK1D (human) = CAMK1D (human) (UniProt Q8IU85)
# CDK5 CDK5R1 p25 (human) = CDK5 CDK5R1 p25 (human) (UniProt Q00535+Q15078)
# CLK1 (human) = CLK1 (human) (UniProt P49759)
# CSK (human) = CSK (human) (UniProt P41240)
# DDR2 (human) = DDR2 (human) (UniProt Q16832)
# DYRK3 (human) = DYRK3 (human) (UniProt O43781)
# EPHA3 (human) = EPHA3 (human) (UniProt P29320)
# EPHA8 (human) = EPHA8 (human) (UniProt P29322)
# GRK4 (human) = GRK4 (human) (UniProt P32298)
# GRK6 (human) = GRK6 (human) (UniProt P43250)
# HIPK2 (human) = HIPK2 (human) (UniProt Q9H2X6)
# IGF1R (human) = IGF1R (human) (UniProt P08069)
# IKBKE (human) = IKBKE (human) (UniProt Q14164)
# LCK (human) = LCK (human) (UniProt P06239)
# MAP3K9 (human) = MAP3K9 (human) (UniProt P80192)
# MAPK10 (human) = MAPK10 (human) (UniProt P53779)
# MAPK14 (human) = MAPK14 (human) (UniProt Q16539)
# MAPK3 (human) = MAPK3 (human) (UniProt P27361)
# MARK2 (human) = MARK2 (human) (UniProt Q7KZI7)
# MELK (human) = MELK (human) (UniProt Q14680)
# MLTK (human) = MLTK (human) (UniProt Q9NYL2)
# NEK9 (human) = NEK9 (human) (UniProt Q8TD19)
# NLK (human) = NLK (human) (UniProt Q9UBE8)
# NTRK3 (human) = NTRK3 (human) (UniProt Q16288)
# PAK2 (human) = PAK2 (human) (UniProt Q13177)
# PAK4 (human) = PAK4 (human) (UniProt O96013)
# PAK7 (human) = PAK7 (human) (UniProt Q9P286)
# PBK (human) = PBK (human) (UniProt Q96KB5)
# PHKG1 (human) = PHKG1 (human) (UniProt Q16816)
# PHKG2 (human) = PHKG2 (human) (UniProt P15735)
# PLK1 (human) = PLK1 (human) (UniProt P53350)
# PRKCA (human) = PRKCA (human) (UniProt P17252)
# PRKD2 (human) = PRKD2 (human) (UniProt Q9BZL6)
# PRKD3 (human) = PRKD3 (human) (UniProt O94806)
# RPS6KA5 KD2 (human) = RPS6KA5 KD2 (human) (UniProt O75582)
# SGK3 (human) = SGK3 (human) (UniProt Q96BR1)
# SRC (human) = SRC (human) (UniProt P12931)
# STK3 (human) = STK3 (human) (UniProt Q13188)
# ZAP70 (human) = ZAP70 (human) (UniProt P43403)
# Sequence of CLK1 (human) (P49759 whole entry, looked up): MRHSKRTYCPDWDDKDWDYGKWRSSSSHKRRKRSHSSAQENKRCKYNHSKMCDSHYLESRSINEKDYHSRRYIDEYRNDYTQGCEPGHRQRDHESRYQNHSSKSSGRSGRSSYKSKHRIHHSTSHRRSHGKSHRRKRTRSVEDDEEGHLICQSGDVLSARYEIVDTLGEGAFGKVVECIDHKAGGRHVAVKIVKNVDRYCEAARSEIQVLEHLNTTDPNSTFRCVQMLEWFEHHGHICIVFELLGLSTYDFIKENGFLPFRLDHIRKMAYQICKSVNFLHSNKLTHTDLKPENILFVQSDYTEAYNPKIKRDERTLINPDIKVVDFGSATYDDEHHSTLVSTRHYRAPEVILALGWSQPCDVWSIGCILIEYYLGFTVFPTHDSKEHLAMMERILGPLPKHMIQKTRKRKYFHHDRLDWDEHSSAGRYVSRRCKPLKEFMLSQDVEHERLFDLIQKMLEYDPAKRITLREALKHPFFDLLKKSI
# Sequence of NLK (human) (Q9UBE8 whole entry, looked up): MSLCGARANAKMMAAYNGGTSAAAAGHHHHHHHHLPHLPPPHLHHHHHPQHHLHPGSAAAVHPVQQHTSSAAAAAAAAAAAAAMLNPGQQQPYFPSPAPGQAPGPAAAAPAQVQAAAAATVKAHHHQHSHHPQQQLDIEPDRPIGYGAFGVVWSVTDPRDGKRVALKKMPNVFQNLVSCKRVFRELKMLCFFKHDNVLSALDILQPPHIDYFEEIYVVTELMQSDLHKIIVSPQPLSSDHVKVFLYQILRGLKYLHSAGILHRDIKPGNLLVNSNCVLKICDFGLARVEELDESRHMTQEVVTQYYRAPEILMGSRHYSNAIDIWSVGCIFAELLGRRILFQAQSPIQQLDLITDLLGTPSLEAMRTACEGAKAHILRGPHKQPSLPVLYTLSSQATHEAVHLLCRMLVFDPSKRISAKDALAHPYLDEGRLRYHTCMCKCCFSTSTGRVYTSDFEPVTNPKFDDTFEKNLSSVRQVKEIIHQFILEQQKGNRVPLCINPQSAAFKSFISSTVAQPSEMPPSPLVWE
# Sequence of NTRK3 (human) (Q16288 whole entry, looked up): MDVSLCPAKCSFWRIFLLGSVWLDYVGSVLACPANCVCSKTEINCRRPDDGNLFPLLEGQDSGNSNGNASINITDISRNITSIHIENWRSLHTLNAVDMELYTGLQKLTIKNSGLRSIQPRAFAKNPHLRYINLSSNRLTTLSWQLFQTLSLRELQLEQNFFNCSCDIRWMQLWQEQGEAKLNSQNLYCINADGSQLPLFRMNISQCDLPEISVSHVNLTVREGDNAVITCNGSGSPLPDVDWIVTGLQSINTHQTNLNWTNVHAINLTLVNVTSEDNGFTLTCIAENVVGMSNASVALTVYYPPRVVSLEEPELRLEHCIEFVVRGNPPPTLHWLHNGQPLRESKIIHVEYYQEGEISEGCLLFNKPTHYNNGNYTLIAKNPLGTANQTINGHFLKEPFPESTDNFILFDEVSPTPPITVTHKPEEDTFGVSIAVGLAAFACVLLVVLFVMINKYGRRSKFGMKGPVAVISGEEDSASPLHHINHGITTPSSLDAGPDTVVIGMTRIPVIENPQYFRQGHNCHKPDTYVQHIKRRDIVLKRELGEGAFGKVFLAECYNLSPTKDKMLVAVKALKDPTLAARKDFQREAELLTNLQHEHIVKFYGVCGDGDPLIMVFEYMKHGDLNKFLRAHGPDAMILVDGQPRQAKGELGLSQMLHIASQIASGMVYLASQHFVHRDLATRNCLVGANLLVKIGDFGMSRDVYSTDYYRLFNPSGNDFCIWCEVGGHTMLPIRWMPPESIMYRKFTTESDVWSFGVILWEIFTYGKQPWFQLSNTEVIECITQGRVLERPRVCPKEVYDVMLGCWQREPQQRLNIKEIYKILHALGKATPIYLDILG
# Sequence of MAP3K9 (human) (P80192 whole entry, looked up): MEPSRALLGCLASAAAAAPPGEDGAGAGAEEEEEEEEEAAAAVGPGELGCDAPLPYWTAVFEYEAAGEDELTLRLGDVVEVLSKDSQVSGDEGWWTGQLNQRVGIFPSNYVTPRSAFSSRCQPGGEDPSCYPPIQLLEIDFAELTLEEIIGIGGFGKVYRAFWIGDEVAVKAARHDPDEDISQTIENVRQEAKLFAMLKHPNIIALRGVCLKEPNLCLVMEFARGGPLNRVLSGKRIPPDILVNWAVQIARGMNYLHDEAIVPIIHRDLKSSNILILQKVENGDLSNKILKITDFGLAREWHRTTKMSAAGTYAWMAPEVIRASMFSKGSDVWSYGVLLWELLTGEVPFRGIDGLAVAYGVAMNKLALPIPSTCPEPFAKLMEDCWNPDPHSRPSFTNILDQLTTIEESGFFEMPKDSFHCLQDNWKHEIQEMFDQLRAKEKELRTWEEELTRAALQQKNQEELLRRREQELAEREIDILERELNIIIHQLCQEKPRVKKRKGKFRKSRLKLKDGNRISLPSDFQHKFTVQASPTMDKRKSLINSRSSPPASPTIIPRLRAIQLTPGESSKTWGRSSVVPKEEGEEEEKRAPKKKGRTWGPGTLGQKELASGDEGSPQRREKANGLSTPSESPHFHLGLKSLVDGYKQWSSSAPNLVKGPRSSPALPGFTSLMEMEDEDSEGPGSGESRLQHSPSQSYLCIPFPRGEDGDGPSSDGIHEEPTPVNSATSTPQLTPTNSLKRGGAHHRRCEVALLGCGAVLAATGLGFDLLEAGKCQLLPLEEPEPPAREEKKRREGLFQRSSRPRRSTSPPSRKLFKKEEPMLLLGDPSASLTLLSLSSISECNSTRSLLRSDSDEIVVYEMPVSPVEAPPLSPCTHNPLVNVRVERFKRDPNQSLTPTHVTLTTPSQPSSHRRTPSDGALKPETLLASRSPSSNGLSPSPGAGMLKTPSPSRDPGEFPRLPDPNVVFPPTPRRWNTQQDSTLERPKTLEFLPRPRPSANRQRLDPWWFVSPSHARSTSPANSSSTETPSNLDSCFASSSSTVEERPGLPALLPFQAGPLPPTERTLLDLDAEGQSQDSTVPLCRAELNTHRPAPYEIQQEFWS
# Sequence of PHKG1 (human) (Q16816 whole entry, looked up): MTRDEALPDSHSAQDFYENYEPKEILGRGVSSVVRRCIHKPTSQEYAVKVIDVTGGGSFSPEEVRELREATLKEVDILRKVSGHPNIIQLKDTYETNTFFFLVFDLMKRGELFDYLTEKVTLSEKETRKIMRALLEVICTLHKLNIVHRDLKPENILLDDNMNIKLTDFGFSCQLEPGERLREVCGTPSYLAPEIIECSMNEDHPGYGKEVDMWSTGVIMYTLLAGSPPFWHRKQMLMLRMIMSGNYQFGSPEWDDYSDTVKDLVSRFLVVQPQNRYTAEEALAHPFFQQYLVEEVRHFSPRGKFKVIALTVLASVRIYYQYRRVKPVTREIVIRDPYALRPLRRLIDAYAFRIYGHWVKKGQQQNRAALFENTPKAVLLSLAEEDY
# Sequence of GRK6 (human) (P43250 whole entry, looked up): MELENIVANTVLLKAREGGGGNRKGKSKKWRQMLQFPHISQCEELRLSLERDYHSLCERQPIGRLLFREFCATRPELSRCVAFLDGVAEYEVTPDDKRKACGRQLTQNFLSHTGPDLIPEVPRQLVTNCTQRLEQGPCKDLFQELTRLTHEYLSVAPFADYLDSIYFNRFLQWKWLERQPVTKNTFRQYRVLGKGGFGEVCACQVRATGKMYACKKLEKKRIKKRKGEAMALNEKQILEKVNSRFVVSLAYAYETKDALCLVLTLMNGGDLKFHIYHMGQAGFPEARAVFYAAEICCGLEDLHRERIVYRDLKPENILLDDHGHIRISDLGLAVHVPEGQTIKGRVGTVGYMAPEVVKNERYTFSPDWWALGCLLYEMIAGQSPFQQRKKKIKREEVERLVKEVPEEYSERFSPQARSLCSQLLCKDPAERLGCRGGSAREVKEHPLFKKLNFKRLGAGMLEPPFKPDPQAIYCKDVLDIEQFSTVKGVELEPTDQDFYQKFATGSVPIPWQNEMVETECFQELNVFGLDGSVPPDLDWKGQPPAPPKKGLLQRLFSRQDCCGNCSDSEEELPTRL
# Sequence of CSK (human) (P41240 whole entry, looked up): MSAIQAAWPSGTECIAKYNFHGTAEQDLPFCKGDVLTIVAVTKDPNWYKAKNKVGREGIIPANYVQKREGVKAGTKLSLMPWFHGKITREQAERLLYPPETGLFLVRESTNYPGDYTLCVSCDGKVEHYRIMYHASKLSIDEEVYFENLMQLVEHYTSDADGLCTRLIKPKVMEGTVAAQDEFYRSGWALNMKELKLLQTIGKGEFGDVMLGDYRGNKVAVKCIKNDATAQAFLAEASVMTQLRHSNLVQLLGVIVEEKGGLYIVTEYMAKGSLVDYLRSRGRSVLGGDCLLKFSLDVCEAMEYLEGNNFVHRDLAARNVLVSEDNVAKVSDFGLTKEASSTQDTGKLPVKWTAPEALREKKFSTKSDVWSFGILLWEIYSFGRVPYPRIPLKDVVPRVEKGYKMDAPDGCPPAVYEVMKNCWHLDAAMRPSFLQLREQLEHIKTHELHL
# Sequence of MELK (human) (Q14680 whole entry, looked up): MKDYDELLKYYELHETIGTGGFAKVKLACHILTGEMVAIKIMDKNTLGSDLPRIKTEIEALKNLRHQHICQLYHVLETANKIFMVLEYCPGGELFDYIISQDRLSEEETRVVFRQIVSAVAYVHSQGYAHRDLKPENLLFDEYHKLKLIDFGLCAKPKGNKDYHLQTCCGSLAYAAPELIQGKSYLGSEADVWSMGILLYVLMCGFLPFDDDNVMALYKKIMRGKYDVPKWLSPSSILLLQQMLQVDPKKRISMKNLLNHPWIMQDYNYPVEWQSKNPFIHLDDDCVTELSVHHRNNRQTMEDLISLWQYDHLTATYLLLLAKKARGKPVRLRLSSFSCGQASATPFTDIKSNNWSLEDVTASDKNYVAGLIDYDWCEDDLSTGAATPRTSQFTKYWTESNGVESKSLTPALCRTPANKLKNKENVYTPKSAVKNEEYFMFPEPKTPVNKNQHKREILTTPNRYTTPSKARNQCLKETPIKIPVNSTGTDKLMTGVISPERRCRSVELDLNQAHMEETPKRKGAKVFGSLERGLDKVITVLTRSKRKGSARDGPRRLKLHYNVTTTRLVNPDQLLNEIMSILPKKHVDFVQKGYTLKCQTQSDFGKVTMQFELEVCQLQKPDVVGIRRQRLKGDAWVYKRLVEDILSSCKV
smiles,measurement,setting,value
Ic1cccc(CSc2nnc(-c3ccncc3)o2)c1,residual activity,ACVRL1 (human),103%
same,residual activity,AKT2 (human),101%
same,residual activity,ALK (human),101%
same,residual activity,CAMK1D (human),101%
same,residual activity,CDK5 CDK5R1 p25 (human),90.5%
same,residual activity,CLK1 (human),99.8%
same,residual activity,CSK (human),101%
same,residual activity,DDR2 (human),103%
same,residual activity,DYRK3 (human),108%
same,residual activity,EPHA3 (human),111%
same,residual activity,EPHA8 (human),91.5%
same,residual activity,GRK4 (human),99.9%
same,residual activity,GRK6 (human),100%
same,residual activity,HIPK2 (human),102%
same,residual activity,IGF1R (human),99.1%
same,residual activity,IKBKE (human),102%
same,residual activity,LCK (human),98.5%
same,residual activity,MAP3K9 (human),108%
same,residual activity,MAPK10 (human),95.7%
same,residual activity,MAPK14 (human),99.3%
same,residual activity,MAPK3 (human),95.8%
same,residual activity,MARK2 (human),116%
same,residual activity,MELK (human),97.7%
same,residual activity,MLTK (human),96.7%
same,residual activity,NEK9 (human),99.2%
same,residual activity,NLK (human),107%
same,residual activity,NTRK3 (human),104%
same,residual activity,PAK2 (human),97.6%
same,residual activity,PAK4 (human),83.6%
same,residual activity,PAK7 (human),99.3%
same,residual activity,PBK (human),62.7%
same,residual activity,PHKG1 (human),105%
same,residual activity,PHKG2 (human),105%
same,residual activity,PLK1 (human),98.6%
same,residual activity,PRKCA (human),123%
same,residual activity,PRKD2 (human),97.1%
same,residual activity,PRKD3 (human),98.4%
same,residual activity,RPS6KA5 KD2 (human),97.2%
same,residual activity,SGK3 (human),98.5%
same,residual activity,SRC (human),101%
same,residual activity,STK3 (human),110%
same,residual activity,ZAP70 (human),107%
c1ccc2c(-c3ccncc3)c[nH]c2c1,residual activity,ACVRL1 (human),100%
same,residual activity,AKT2 (human),96.4%
same,residual activity,ALK (human),106%
same,residual activity,CAMK1D (human),107%
same,residual activity,CDK5 CDK5R1 p25 (human),92%
same,residual activity,CLK1 (human),105%
same,residual activity,CSK (human),107%
same,residual activity,DDR2 (human),92.6%
same,residual activity,DYRK3 (human),101%
same,residual activity,EPHA3 (human),107%
same,residual activity,EPHA8 (human),101%
same,residual activity,GRK4 (human),94.9%
same,residual activity,GRK6 (human),103%
same,residual activity,HIPK2 (human),94.1%
same,residual activity,IGF1R (human),105%
same,residual activity,IKBKE (human),96.4%
same,residual activity,LCK (human),102%
same,residual activity,MAP3K9 (human),83.3%
same,residual activity,MAPK10 (human),102%
same,residual activity,MAPK14 (human),104%
same,residual activity,MAPK3 (human),98.9%
same,residual activity,MARK2 (human),102%
same,residual activity,MELK (human),102%
same,residual activity,MLTK (human),102%
same,residual activity,NEK9 (human),101%
same,residual activity,NLK (human),95.1%
same,residual activity,NTRK3 (human),100%
same,residual activity,PAK2 (human),84%
same,residual activity,PAK4 (human),96.7%
same,residual activity,PAK7 (human),93.8%
same,residual activity,PBK (human),97.1%
same,residual activity,PHKG1 (human),90.3%
same,residual activity,PHKG2 (human),101%
same,residual activity,PLK1 (human),102%
same,residual activity,PRKCA (human),97.4%
same,residual activity,PRKD2 (human),95.7%
same,residual activity,PRKD3 (human),90.7%
same,residual activity,RPS6KA5 KD2 (human),96.7%
same,residual activity,SGK3 (human),92.8%
same,residual activity,SRC (human),100%
same,residual activity,STK3 (human),112%
same,residual activity,ZAP70 (human),105%
N#Cc1c[nH]c2c[nH]/c(=N\Cc3cccnc3)cc2/c1=N\c1ccc(F)c(Cl)c1,residual activity,ACVRL1 (human),96.9%
same,residual activity,AKT2 (human),101%
same,residual activity,ALK (human),107%
same,residual activity,CAMK1D (human),97.8%
same,residual activity,CDK5 CDK5R1 p25 (human),78.3%
same,residual activity,CLK1 (human),91%
same,residual activity,CSK (human),95.2%
same,residual activity,DDR2 (human),91.9%
same,residual activity,DYRK3 (human),96.3%
same,residual activity,EPHA3 (human),122%
same,residual activity,EPHA8 (human),91.2%
same,residual activity,GRK4 (human),98.8%
same,residual activity,GRK6 (human),106%
same,residual activity,HIPK2 (human),93.2%
same,residual activity,IGF1R (human),93.8%
same,residual activity,IKBKE (human),90.6%
same,residual activity,LCK (human),97.3%
same,residual activity,MAP3K9 (human),87.5%
same,residual activity,MAPK10 (human),95%
same,residual activity,MAPK14 (human),115%
same,residual activity,MAPK3 (human),100%
same,residual activity,MARK2 (human),93.2%
same,residual activity,MELK (human),88%
same,residual activity,MLTK (human),106%
same,residual activity,NEK9 (human),96.3%
same,residual activity,NLK (human),88%
same,residual activity,NTRK3 (human),93.2%
same,residual activity,PAK2 (human),66.6%
same,residual activity,PAK4 (human),85.4%
same,residual activity,PAK7 (human),98.3%
same,residual activity,PBK (human),84.8%
same,residual activity,PHKG1 (human),92%
same,residual activity,PHKG2 (human),88.3%
same,residual activity,PLK1 (human),92.6%
same,residual activity,PRKCA (human),89.7%
same,residual activity,PRKD2 (human),99.7%
same,residual activity,PRKD3 (human),90.4%
same,residual activity,RPS6KA5 KD2 (human),102%
same,residual activity,SGK3 (human),91.5%
same,residual activity,SRC (human),92.6%
same,residual activity,STK3 (human),94.3%
same,residual activity,ZAP70 (human),103%
CN(C)CCCn1cc(C2=C(c3c[nH]c4ccccc34)C(=O)NC2=O)c2ccccc21,residual activity,ACVRL1 (human),107%
same,residual activity,AKT2 (human),88.7%
same,residual activity,ALK (human),87%
same,residual activity,CAMK1D (human),68%
same,residual activity,CDK5 CDK5R1 p25 (human),80.2%
same,residual activity,CLK1 (human),60.3%
same,residual activity,CSK (human),97%
same,residual activity,DDR2 (human),111%
same,residual activity,DYRK3 (human),97.9%
same,residual activity,EPHA3 (human),93%
same,residual activity,EPHA8 (human),103%
same,residual activity,GRK4 (human),84.5%
same,residual activity,GRK6 (human),72%
same,residual activity,HIPK2 (human),77.5%
same,residual activity,IGF1R (human),91.7%
same,residual activity,IKBKE (human),89.4%
same,residual activity,LCK (human),91.8%
same,residual activity,MAP3K9 (human),46%
same,residual activity,MAPK10 (human),99.3%
same,residual activity,MAPK14 (human),90.7%
same,residual activity,MAPK3 (human),108%
same,residual activity,MARK2 (human),71.7%
same,residual activity,MELK (human),42%
same,residual activity,MLTK (human),93.1%
same,residual activity,NEK9 (human),100%
same,residual activity,NLK (human),94%
same,residual activity,NTRK3 (human),20.2%
same,residual activity,PAK2 (human),96.2%
same,residual activity,PAK4 (human),93.6%
same,residual activity,PAK7 (human),92.8%
same,residual activity,PBK (human),81.3%
same,residual activity,PHKG1 (human),31.9%
same,residual activity,PHKG2 (human),97.9%
same,residual activity,PLK1 (human),101%
same,residual activity,PRKCA (human),6.27%
same,residual activity,PRKD2 (human),78.8%
same,residual activity,PRKD3 (human),54.6%
same,residual activity,RPS6KA5 KD2 (human),17%
same,residual activity,SGK3 (human),72.8%
same,residual activity,SRC (human),92.6%
same,residual activity,STK3 (human),44.2%
same,residual activity,ZAP70 (human),93%
